Reference: patent US4782014A, “Assay and purification of amyloid components, applications, and kits therefor” (Ciba-Geigy Corporation, priority 1985, dated 1988)

Columns and labels:
[1] = biological target: human SAP binding to TNP-KLH coated polystyrene (Homo sapiens, UniProt P02743); experiment: Inhibition of binding of human SAP to TNP-KLH coated polystyrene; conditions: for IC50 / concentration at 50% inhibition of human SAP binding to TNP-KLH coated polystyrene: 40 ng/ml human SAP, preincubated 2 hours at 20° C.; for IC50: read-out: concentration at 50% inhibition of human SAP binding to TNP-KLH coated polystyrene
Method: The samples containing 40 ng/ml human SAP are preincubated with dilutions of the compound to be tested as an inhibitor for two hours at 20° C. The perent decrease in SAP binding to TNP-KLH is calculated in comparison to the SAP binding in the absence of any inhibitor.

[2] = Retention of SAP on TNP-Sepharose column; assay type: binding, human; conditions: absence of Ca^2+ ions, TBS
[3] = ELISA for SAP: binding of purified human SAP to plastic surface
Method: The wells of flat-bottom polystyrene microtiter plates (Immulon®, Dynatech, Zug, Switzerland) or polyvinyl chloride microtiter plates (Microtest III™, Becton Dickinson, Oxnard, CA, USA) are incubated with either 100 μl 0.3M NaHCO3 alone, 100 μl KLH 2 μg/ml in 0.3M NaHCO3, or 100 μl TNP-KLH (Example 1) 2 μg/ml in 0.3M NaHCO3 for one hour or more at room temperature. […] The plates are washed with 5 mM CaCl2, then incubated with 100 μl each of human SAP containing samples (standard solutions or serum dilutions in ELISA buffer) for 2 hours at 20° C. […] The plates are washed with 5 mM CaCl2, incubated for 2 hours at 20° C. with 100 μl of rabbit antiserum to human SAP (Calbiochem) diluted 1:10^4 with ELISA buffer, washed again with 5 mM CaCl2, and incubated overnight in a water-saturated atmosphere at 20° C. with 100 μl of horseradish peroxidase conjugated donkey anti-rabbit Ig antiserum (Amersham Int., Amersham, UK) diluted 1:5000 with ELISA buffer. The plates are washed, then developed with 100 μl per well of buffered o-phenylenediamine (100 mg in 48.6 ml 0.1M citric acid and 51.4 ml 0.2M Na2 HPO4, pH 5.0) containing 0.03% H2 O2 in the dark at 20° C. for 15 minutes. The reaction is stopped by addition of 25 μl 2.5M H2 SO4 and the optical density of the colour developed by the enzyme reaction determined at 492 nm using a Titertek® multiscan spectrophotometer (Flow Laboratories). […]

[4] = ELISA for SAA: binding of human SAA to polystyrene

Sequence of human SAP binding to TNP-KLH coated polystyrene (P02743 20-223): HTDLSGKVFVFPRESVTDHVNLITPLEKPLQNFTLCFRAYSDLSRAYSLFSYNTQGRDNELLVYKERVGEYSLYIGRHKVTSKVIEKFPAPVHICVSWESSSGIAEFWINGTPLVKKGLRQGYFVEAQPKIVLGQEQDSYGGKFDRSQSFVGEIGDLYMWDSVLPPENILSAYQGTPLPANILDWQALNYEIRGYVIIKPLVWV

With O=[N+]([O-])c1cc([N+](=O)[O-])c2ccc(S(=O)(=O)O)cc2c1O [2,4-dinitro-1-naphthol-7-sulphonic acid] the “inhibition of SAP binding to TNP-KLH coated polystyrene, in words” value (from here on “inhibition of SAP binding”) [1] was “Inhibiting properties” and the IC50 [1] was 43.3 ± 5.8 mM.

In the case of O=C(O)CN(CCN(CC(=O)O)CC(=O)O)CC(=O)O [EDTA, ethylenediamine-N,N,N',N'-tetraacetic acid], the “inhibition of SAP binding” value [1] is reported as “inhibitors of SAP binding at concentrations equal or in excess of the Ca^2+ concentration” and the IC50 [1] is reported as 5.35 ± 1.3 mM.

With O=C(O)CN(CCOCCOCCN(CC(=O)O)CC(=O)O)CC(=O)O [EGTA, 1,2-di(2-aminoethoxy)ethane-N,N,N',N'-tetraacetic acid] the “inhibition of SAP binding” value [1] was “inhibitors of SAP binding at concentrations equal or in excess of the Ca^2+ concentration” and the IC50 [1] was 17 ± 2.2 mM.

In the case of Nc1ccc([As](=O)(O)O)cc1 [p-aminophenyl-arsonic acid], the “inhibition of SAP binding” value [1] is reported as “Inhibiting properties” and the IC50 [1] is reported as 27.3 ± 4.9 mM.

In the case of O=[N+]([O-])c1ccc([As](=O)(O)O)cc1 [p-nitrophenylarsonic acid], the “inhibition of SAP binding” value [1] is reported as “Inhibiting properties” and the IC50 [1] is reported as 4.2 ± 1.3 mM.

With “SAP: serum amyloid P-component, a 9.5S α1 glycoprotein of 235'000 Dalton molecular weight” the “retention of SAP on TNP-Sepharose” value [2] was “not retained”, the “SAP binding at reduced CaCl2 concentration” value ([3]; 0.06 mM or lower concentrations of CaCl2) was “no SAP is bound” and the “SAP binding at reduced CaCl2 concentration” value ([3]; 0.12 mM CaCl2) was “sharp decrease of SAP binding”.

With “TNP-BSA: prepared from BSA and 2,4,6-trinitrobenzenesulfonic acid yielding a conjugate with 15 TNP residues per BSA molecule” the “inhibition of SAP binding” value [1] was “compete efficiently for SAP” and the “concentration at 50% inhibition of human SAP binding to TNP-KLH coated polystyrene” value [1] was 0.33 ± 0.06 µg/mL.

For pectic acid, the “inhibition of SAP binding” value [1] was “Inhibiting properties” and the “concentration at 50% inhibition of human SAP binding to TNP-KLH coated polystyrene” value [1] was 0.2 ± 0.07 µg/mL.

B1: SAA: α1 globulin consisting of a single polypeptide chain of molecular weight between 11'500 and 14'000 Dalton (protein, UniProt P0DJI8 19-122, looked up)
Serum amyloid A-1 protein: RSFFSFLGEAFDGARDMWRAYSDMREANYIGSDKYFHARGNYDAAKRGPGGAWAAEVITDARENIQRFFGHGAEDSLADQAANEWGRSGKDPNHFRPAGLPEKY
With B1 the “binding of human SAA to KLH-coated polystyrene and polystyrene alone, in words” value ([4]; KLH-coated polystyrene and polystyrene alone) was “Substantial binding”, the “binding of human SAA to polystyrene coated with TNP-KLH, in words” value ([4]; TNP-KLH coated polystyrene) was “very efficiently” and the “binding of human SAA when Ca^2+ is omitted, in words” value ([4]; TNP-KLH coated polystyrene, Ca^2+ omitted) was “without loss in binding efficiency”.
